Where two headings read alike, the source gives them in different places.
Key:
opiated receptor K = biological target: T1, opiated receptor K (Cavia porcellus, UniProt P41144); assay: Liaison with the opiated receptor K in vitro (displacement of 3H ethylketocyclazocine); format: binding; conditions: guinea-pig cerebella membranes, 3H ethylketocyclazocine 1 nM, Tris pH 7.7, 25° C., 40 minutes
T1 construct: Membrane residue prepared from the cerebella of guinea-pigs; from tissue; host or cells: guinea-pig cerebellum membranes
T1 sequence (P41144 whole entry): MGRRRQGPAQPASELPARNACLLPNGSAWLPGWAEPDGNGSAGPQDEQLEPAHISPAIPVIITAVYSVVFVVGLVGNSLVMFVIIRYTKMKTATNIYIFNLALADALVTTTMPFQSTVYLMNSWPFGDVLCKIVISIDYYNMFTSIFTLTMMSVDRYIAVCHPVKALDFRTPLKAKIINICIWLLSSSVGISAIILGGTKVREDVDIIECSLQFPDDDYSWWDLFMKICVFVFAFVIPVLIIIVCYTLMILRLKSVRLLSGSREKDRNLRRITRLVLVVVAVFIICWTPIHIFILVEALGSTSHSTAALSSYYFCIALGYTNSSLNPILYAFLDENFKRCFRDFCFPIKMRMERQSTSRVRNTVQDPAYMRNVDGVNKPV

[1] = Hypotensive activity on the anaesthetized rat; format: in vivo, rat (Sprague Dawley); conditions: injected into jugular vein
[2] = Measurement of the diuretic activity; format: in vivo, rat (Sprague Dawley); conditions: oral, t1h-t5h
Protocol: 4) Measurement of the diuretic activity
Male rats of Sprague Dawley strain weighing 180 to 200 g were not fed for 17 hours before the test, but received water ad libitum. Groups of 8 animals were set up for each dose tested and the rats received the product under test or its vehicle orally. The urinary volume was measured every hour for the 5 hours following the administration of the product. At the end of this period, the urines were collected and the activity of the product was expressed as a percentage of variation calculated on the urinary volume corresponding to the period t1h -t5h.

[3] = format: in vivo, rat; conditions: intravenous, aconitine 5 minutes after
[4] = 50% inhibiting concentration (IC50)
[5] = read-out: 50% inhibiting concentration (IC50)

Structure (SMILES)	IC50 (opiated receptor K; [4])	variation of arterial pressure, 5 min. after administration ([1]; dose 1 mg/kg)	variation of arterial pressure, 30 min. after administration ([1]; dose 1 mg/kg)	other results
CN(C(=O)Cc1cccc(C(F)(F)F)c1)[C@@H]1c2ccccc2C[C@H]1N1CCCC1 (relative stereo) [Example 6, [Trans (±)]N-[2,3-dihydro-2-(1-pyrrolidinyl)-1H-inden-1-yl]-N-methyl-3-(trifluoromethyl)-benzene-acetamide]	7.5 nM	–	–	–
CN(C(=O)Cc1ccc([N+](=O)[O-])cc1)[C@@H]1c2ccccc2C[C@H]1N1CCCC1 (relative stereo) [Example 16, [Trans (±)]N-[2,3-dihydro-2-(1-pyrrolidinyl)-1H-inden-1-yl]-N-methyl-4-nitro-benzene-acetamide (isomer A)]	5 nM	–	–	–
CN(C(=O)Cc1ccc(Cl)c(Cl)c1)[C@H]1[C@H](N2CCCC2)c2ccccc2C12CCOCC2 (relative stereo) [Example 4, [trans (±)]3,4-dichloro-N-[2,2',3,3',5',6'-hexahydro-3-(1-pyrrolidinyl)-spiro (1H-inden-1-,4'-(4H)-pyran]-2-yl]-N-methyl-benzene-acetamide]	–	–	–	variation of arterial pressure, 5 min. after administration ([1]; dose 10 mg/kg): -26%; variation of arterial pressure, 30 min. after administration ([1]; dose 10 mg/kg): -14%
CN(C)[C@@H]1Cc2ccccc2[C@H]1N(C)C(=O)Cc1ccc(Cl)c(Cl)c1 (relative stereo) [Example 25, [Trans (±)]3,4-dichloro-N-[2,3-dihydro-2-(dimethylamino)-1H-inden-1-yl]-N-methyl-benzene-acetamide]	2.2 nM	–	–	–
CN(C(=O)Cc1ccc([N+](=O)[O-])cc1)[C@@H]1c2ccccc2C[C@H]1N1CCCC1 (relative stereo) [Example 8, [Trans (±)]N-[2,3-dihydro-2-(1-pyrrolidinyl)-1H-inden-1-yl]-N-methyl-4-nitro-benzene-acetamide]	7.1 nM	-25%	-27%	percentage of variation of the urinary volume ([2]; dose 2.5 mg/kg): +124%; percentage of variation of the urinary volume ([2]; dose 5 mg/kg): +130%; percentage of extension of time of appearance of disturbances of the cardiac rhythm ([3]; dose 5 mg/kg): +23%
CN(C(=O)Cc1ccc(Cl)c(Cl)c1)[C@H]1[C@H](N2CCCC2)c2ccccc2C1(C)C (relative stereo) [Example 29, [Trans (±)]3,4-dichloro-N-[2,3-dihydro-1,1-dimethyl-3-(1-pyrrolidinyl)-1H-inden-2-yl]-N-methyl-benzene-acetamide]	5.6 nM	–	–	–
CC(C(=O)N(C)[C@@H]1c2ccccc2C[C@H]1N1CCCC1)c1ccc(Cl)c(Cl)c1 (mixture of isomers) [Example 22, [Trans (±)]3,4-dichloro-N-[2,3-dihydro-2-(1-pyrrolidinyl)-1H-inden-1-yl]-N-α-dimethyl-benzene-acetamide]	–	–	–	IC50 (opiated receptor K; [5]): 7.1 nM
CN(C(=O)COc1ccc(Cl)c(Cl)c1)[C@@H]1c2ccccc2C[C@H]1N1CCCC1 (relative stereo) [Example 14, [trans (±)]2-(3,4-dichlorophenoxy)-N-[2,3-dihydro-2-(1-pyrrolidinyl)-1H-inden-1-yl]-N-methyl-acetamide]	–	-22%	-26%	IC50 (opiated receptor K; [5]): 3.8 nM; percentage of variation of the urinary volume ([2]; dose 5 mg/kg): +68%
CN(C(=O)Cc1ccc(C(F)(F)F)cc1)[C@@H]1c2ccccc2C[C@H]1N1CCCC1 (relative stereo) [Example 5, [Trans (±)]N-[2,3-dihydro-2-(1-pyrrolidinyl)-1H-inden-1-yl]-N-methyl 4-(trifluoromethyl)-benzene-acetamide]	3 nM	-20%	-20%	variation of arterial pressure, 5 min. after administration ([1]; dose 10 mg/kg): -25%; variation of arterial pressure, 30 min. after administration ([1]; dose 10 mg/kg): -10%; percentage of extension of time of appearance of disturbances of the cardiac rhythm ([3]; dose 10 mg/kg): +15.6%

From patent publication US5234944A (priority 1986, dated 1993)
